Key:
Assay in all cases: greenhouse post-emergence herbicidal test
POLPE = type: in vivo, Persicaria maculosa; set-up: key: scale 0 to 100; conditions: 6 days after treatment, g/ha a.i.: I.1 31.25, B.96 35, mixture 31.25+35
Protocol: (§1) The culture containers used were plastic pots containing medium loamy sand with approximately 4.6% of humus and 69.9% sand as substrate. The seeds of the test plants were sown separately for each species.
(§2) For the post-emergence treatment, the test plants were grown to a plant height of from 1 to 15 cm, depending on the plant habit, and only then treated with the active compounds which had been suspended or emulsified in water. To this end, the test plants were either sown directly, and grown in the same containers, or they were first grown separately as seedlings and transplanted into the test containers a few days prior to treatment.
(§3) Depending on the species, the plants were kept at 10-25° C. and 20-35° C., respectively.
(§4) The test period extended over 1 to 3 weeks. During this time, the plants were tended and their response to the individual treatments was evaluated 20 days after treatment except mentioned otherwise.
(§5) Evaluation was carried out using a scale from 0 to 100. 100 means no emergence of the plants, or complete destruction of at least the above-ground parts, and 0 means no damage or normal course of growth.
(§6) The respective stated components A and B, and, if appropriate, C, were formulated as a 10% by weight strength emulsion concentrate and, with addition of the amount of solvent system, introduced into the spray liquor used for applying the active compound. In the examples, the solvent used was water.
(§7) In the examples below, using the method of S. R. Colby (1967) “Calculating synergistic and antagonistic responses of herbicide combinations”, Weeds 15, p. 22 ff., the value E, which is expected if the activity of the individual active compounds is only additive, was calculated. E=X+Y−(X·Y/100)

STEME = type: in vivo, Stellaria media; set-up: key: scale 0 to 100; conditions: 6 days after treatment, g/ha a.i.: I.1 31.25, B.96 35, mixture 31.25+35
Outline: (§8)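 Visual rating at 20 days after treatment used a 0–100 scale, where 100 meant no emergence or complete destruction of above-ground parts. Seedlings of 1–15 cm, grown at species-dependent 10-25° C or 20-35° C, received water-based spray liquor containing the formulated components.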

VIOAR = type: in vivo, Viola arvensis; set-up: key to herbicidal activity against VIOAR found / herbicidal activity against VIOLA found: rating on a scale from 0 to 100; conditions: post emergence, 6 days after treatment
Outline: (§9)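 Post-emergence greenhouse test: plants in loamy sand, sprayed at 1–15 cm height with aqueous spray liquor from 10% emulsion concentrates, kept at 10-25 °C or 20-35 °C by species. Damage scored 0–100 (100 = complete destruction), usually 20 days after treatment. Expected additive effect E from Colby: E=X+Y−(X·Y/100).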

IPOHE = type: in vivo, Ipomoea hederacea; set-up: key to herbicidal activity against IPOHE found: rating on a scale from 0 to 100; conditions: post emergence, 6 days after treatment
Outline: as §9

KCHSC = type: in vivo, Kochia scoparia; set-up: key to herbicidal activity against KCHSC found: rating on a scale from 0 to 100; conditions: post emergence, 6 days after treatment
Outline: as §9

POLCO = type: in vivo, Polygonum convolvulus; set-up: key to herbicidal activity against POLCO found: rating on a scale from 0 to 100; conditions: post emergence, 6 days after treatment
Outline: as §9

ABUTH = type: in vivo, Abutilon theophrast; set-up: key to herbicidal activity against ABUTH found: rating on a scale from 0 to 100; conditions: post emergence, 6 days after treatment, g/ha a.i.: I.1 31.25
Outline: as §8

SORVU = type: in vivo; conditions: 6 days after treatment, g/ha a.i.: I.1 31.25, B.96 140, mixture 31.25+140
POLAV = type: in vivo, Polygonum aviculare; set-up: key: rating on a scale from 0 to 100; conditions: 6 days after treatment
Protocol: as §1, §2, §3, §4, §5, §6, §7

CONAR = type: in vivo, Convolvulus arvensis; set-up: key: rating on a scale from 0 to 100; conditions: 6 days after treatment, g/ha a.i.: I.1 62.5, B.96 140, mixture 62.5+140
Outline: as §8

GALAP = type: in vivo, Galium aparine; set-up: key to herbicidal activity against GALAP found: rating on a scale from 0 to 100; conditions: post emergence, 6 days after treatment, g/ha a.i.: I.1 62.5
Outline: as §9

SASKR = type: in vivo, Salsola kali; set-up: key: scale 0 to 100; conditions: 6 days after treatment, g/ha a.i.: I.1 62.5, B.96 140, mixture 62.5+140
Outline: as §9

MATCH = type: in vivo, Matricaria recutita; conditions: post emergence; a.i. g/ha: I.1 20.8, B.192 62.5; 20 days after treatment
Outline: as §8

AMARE = type: in vivo, Amaranthus retroflexus; conditions: a.i. g/ha: I.1 20.8, B.192 62.5, 20 days after treatment
Protocol: as §1, §2, §3, §4, §5, §6, §7

SETVI = type: in vivo, Setaria viridis; conditions: a.i. g/ha: I.1 20.8, B.192 62.5, 20 days after treatment
Protocol: as §1, §2, §3, §4
Evaluation was carried out using a scale from 0 to 100. […]
In the examples below, using the method of S. R. Colby (1967) “Calculating synergistic and antagonistic responses of herbicide combinations”, Weeds 15, p. 22 ff., the value E, which is expected if the activity of the individual active compounds is only additive, was calculated. […]

CHEAL = type: in vivo, Chenopodium album; conditions: a.i. g/ha: I.1 20.8, B.192 62.5, 20 days after treatment
Outline: as §8

AMBEL = type: in vivo, Ambrosia artemisiifolia; conditions: a.i. g/ha: I.1 20.8, B.192 62.5, 20 days after treatment
Outline: as §8

[1] = g/ha a.i.: I.1 31.25, B.96 35, mixture 31.25+35
[2] = g/ha a.i.: I.1 31.25, B.96 70, mixture 31.25+70
[3] = g/ha a.i.: I.1 31.25, B.96 140, mixture 31.25+140
[4] = g/ha a.i.: I.1 62.5, B.96 35, mixture 62.5+35
[5] = g/ha a.i.: I.1 62.5, B.96 70, mixture 62.5+70
[6] = g/ha a.i.: I.1 62.5, B.96 140, mixture 62.5+140

CS(=O)(=O)c1ccc(C(=O)C2=C(Sc3ccccc3)C3CCC(C3)C2=O)c(Cl)c1 (centres unmarked) [B.96, benzobicyclon]
herbicidal activity against POLPE found (POLPE): 85
herbicidal activity against STEME found (STEME): 85
herbicidal activity against VIOAR found (VIOAR; [1]): 65
herbicidal activity against VIOAR found (VIOAR; [2]): 65
herbicidal activity against VIOAR found (VIOAR; [3]): 65
herbicidal activity against VIOAR found (VIOAR; [4]): 65
herbicidal activity against VIOAR found (VIOAR; [5]): 65
herbicidal activity against VIOAR found (VIOAR; [6]): 65
herbicidal activity against IPOHE found (IPOHE; [1]): 70
herbicidal activity against IPOHE found (IPOHE; [2]): 70
herbicidal activity against IPOHE found (IPOHE; [3]): 70
herbicidal activity against IPOHE found (IPOHE; [6]): 70
herbicidal activity against KCHSC found (KCHSC; [1]): 35
herbicidal activity against KCHSC found (KCHSC; [2]): 40
herbicidal activity against KCHSC found (KCHSC; [3]): 55
herbicidal activity against KCHSC found (KCHSC; [4]): 35
herbicidal activity against KCHSC found (KCHSC; [5]): 40
herbicidal activity against POLCO found (POLCO; [2]): 70
herbicidal activity against POLCO found (POLCO; [3]): 80
herbicidal activity against POLCO found (POLCO; [5]): 70
herbicidal activity against POLCO found (POLCO; [6]): 80
herbicidal activity against ABUTH found (ABUTH; B.96 35, mixture 31.25+35): 80
herbicidal activity against ABUTH found (ABUTH; B.96 70, mixture 31.25+70): 85
herbicidal activity against SORVU found (SORVU): 60
herbicidal activity against POLAV found (POLAV; [5]): 70
herbicidal activity against POLAV found (POLAV; [6]): 70
herbicidal activity against CONAR found (CONAR): 75
herbicidal activity against GALAP found (GALAP; B.96 70, mixture 62.5+70): 75
herbicidal activity against GALAP found (GALAP; B.96 140, mixture 62.5+140): 80
herbicidal activity against SASKR found (SASKR): 65

COC(=O)Nc1cccc(OC(=O)Nc2cccc(C)c2)c1 [B.192, phenmedipham]
herbicidal activity against MATCH found (MATCH): 50%
herbicidal activity against AMARE found (AMARE): 35%
herbicidal activity against SETVI found (SETVI): 65%
herbicidal activity against CHEAL found (CHEAL): 50%
herbicidal activity against AMBEL found (AMBEL): 90%
